{"source": "patent US5912269A", "about": "“Butyrate prodrugs derived from lactic acid” (Vertex Pharmaceuticals, Inc., priority 1996, dated 1999)", "key": {"[1]": {"conditions": "cited from earlier work"}, "[2]": {"test": "Triglyceride and ALT levels during efficacy study in anemic rhesus monkeys", "conditions": "all three groups, prior to or during the two phases"}, "[3]": {"test_system": "Hemoglobin F", "test": "Hemoglobin F level in total hemoglobin (% Hb F) by HPLC, efficacy study in anemic rhesus monkeys", "type": "in vivo", "procedure": "(§1) The efficacy of compound IIIc administered in conjunction with hydroxyurea was tested on six anemic rhesus monkeys divided into three groups of two each. Each group was studied in two phases, as shown below. Fetal hemoglobin cells (F cells), Hemoglobin F level in total Hemoglobin (% Hb F) and % γ globin chain levels were monitored before and after each of the two phases. % F cells were measured according to the protocol described in Betke et al, Blut., 4, pp. 241-9 (1958). % Hb F and % γ globin chain synthesis were measured using High Performance Liquid Chromatography (HPLC) according to the protocol described in Huisman, J. Chromagtogr., 418, pp. 277 (1987)."}, "[4]": {"test_system": "Fetal hemoglobin cells (F cells)", "test": "Fetal hemoglobin cells (% F cells), efficacy study in anemic rhesus monkeys", "type": "in vivo"}, "[5]": {"test_system": "γ globin chain", "test": "% γ globin chain levels by HPLC, efficacy study in anemic rhesus monkeys", "type": "in vivo", "procedure": "as §1"}, "[6]": {"test_system": "sickle cell anemia patients", "conditions": "cited from earlier work"}, "[7]": {"conditions": "rhesus monkey, in vivo"}, "[8]": {"conditions": "Groups II and III (compound IIIc)"}, "[9]": {"conditions": "Group I (hydroxyurea in Phase I, hydroxyurea + compound IIIc in Phase II)"}}, "note": "Read-outs that look alike come from different tables or passages of the source."}
{"smiles": "CCCC(=O)OCOC(=O)C(C)(C)C", "note": "[AN-9]", "values": [{"measurement": "formaldehyde-producing metabolites in vivo", "setting": "[1]", "result": "elicit metabolites that may produce formaldehyde in vivo"}]}
{"smiles": "CCCC(=O)O[C@@H](C)C(=O)OCC", "note": "[Compound IIIc]", "values": [{"measurement": "levels of ALT", "setting": "[2]", "result": "no detectable difference"}, {"measurement": "levels of the triglycerides", "setting": "[2]", "result": "no detectable difference"}, {"measurement": "HbF", "setting": "[3]; [8]", "result": "no measurable change"}, {"measurement": "% F cell count at the end of Phase II", "setting": "[4]; Animal 2, group II, compound IIIc 1 g/kg/TID, 5 weeks, 8-10% before Phase I", "result": 22, "unit": "%"}, {"measurement": "% F cell count at the end of Phase I", "setting": "[4]; Animal 2, group II, compound IIIc 1 g/kg/day, 5 weeks, 8-10% before Phase I", "result": 15, "unit": "%"}, {"measurement": "increase in % F cells", "setting": "[4]; [8]", "result": "small but significant increase"}, {"measurement": "γ-globin chain levels", "setting": "[5]; [8]", "result": "no measurable change"}]}
{"smiles": "NC(=O)NO", "note": "[Hydroxyurea, hydroxyurea]", "values": [{"measurement": "fetal hemoglobin production and sickling crisis", "setting": "[6]", "result": "stimulates fetal hemoglobin production and reduces sickling crisis"}, {"measurement": "levels of ALT", "setting": "[7]", "result": "no detectable difference"}, {"measurement": "levels of the triglycerides", "setting": "[7]", "result": "no detectable difference"}, {"measurement": "% Hb F level", "setting": "[3]; [9]", "result": "measurable increase"}, {"measurement": "% F cell count at the end of Phase I", "setting": "[4]; Animal 1, group I, hydroxyurea 50 mg/kg/day, 5 weeks, 8-10% before Phase I", "result": 25, "unit": "%"}, {"measurement": "% γ-globin chain levels", "setting": "[5]; [9]", "result": "measurable increase"}]}
